Experimental data: the NIST ThermoML archive (doi:10.1021/je060271a)

Conditions: 303.16 K, Liquid, Vibrating tube method

CCCC(=O)OCC(COC(=O)CCC)(COC(=O)CCC)COC(=O)CCC [pentaerythritol tetrabutyrate]
Conditions | mass density [kg/m3]
218.9 kPa | 1042.3
232.4 kPa | 1042.3
246.9 kPa | 1042.3
262 kPa | 1042.5
324.9 kPa | 1042.3
472.3 kPa | 1042.4
544.7 kPa | 1042.5
563.5 kPa | 1042.5
587.1 kPa | 1042.5
607.3 kPa | 1042.4
629 kPa | 1042.6
656.4 kPa | 1042.6
678.3 kPa | 1042.6
696.6 kPa | 1042.6
718.1 kPa | 1042.7
737.2 kPa | 1042.6
757 kPa | 1042.6
776.8 kPa | 1042.6
796 kPa | 1042.7
818.2 kPa | 1042.7
836.3 kPa | 1042.7
853.6 kPa | 1042.7
873.1 kPa | 1042.8
890.5 kPa | 1042.7
907.8 kPa | 1042.7
929.5 kPa | 1042.8
947.9 kPa | 1042.7
966.4 kPa | 1042.8
985.3 kPa | 1042.9
1007.9 kPa | 1042.8
1026.6 kPa | 1042.8
1044.5 kPa | 1042.8
1062.2 kPa | 1042.9
1083.2 kPa | 1043
1101 kPa | 1042.8
1119.2 kPa | 1042.9
1141.3 kPa | 1042.9
1160.5 kPa | 1042.9
1180.3 kPa | 1042.9
1203.2 kPa | 1042.8
1223.6 kPa | 1042.8
1243.7 kPa | 1043
1290.1 kPa | 1043
1358.8 kPa | 1043.1
1379.7 kPa | 1043
1401.5 kPa | 1043
1428.1 kPa | 1043.1
1450.3 kPa | 1043.1
1473.3 kPa | 1043.1
1501.7 kPa | 1043.2
1526.2 kPa | 1043.1
1550.9 kPa | 1043.1
1583.5 kPa | 1043.2
1604.5 kPa | 1043.2
1630.2 kPa | 1043.2
1662.3 kPa | 1043.2
1689.4 kPa | 1043.3
1717.5 kPa | 1043.3
1751.5 kPa | 1043.3
1780.2 kPa | 1043.3
1810 kPa | 1043.3
1846.1 kPa | 1043.4
1877 kPa | 1043.3
1908.8 kPa | 1043.5
1942.4 kPa | 1043.5
1983.9 kPa | 1043.5
2011.5 kPa | 1043.6
2053.9 kPa | 1043.4
2086.5 kPa | 1043.6
2109.2 kPa | 1043.5
2134.7 kPa | 1043.5
2155.2 kPa | 1043.4
2176 kPa | 1043.6
2200.7 kPa | 1043.6
2220.8 kPa | 1043.6
2241.1 kPa | 1043.6
2266.1 kPa | 1043.6
2286.5 kPa | 1043.6
2308 kPa | 1043.7
2333 kPa | 1043.7
2354.7 kPa | 1043.7
2376.6 kPa | 1043.7
2398.4 kPa | 1043.7
2422.9 kPa | 1043.8
2443.3 kPa | 1043.9
2464.3 kPa | 1043.6
2488.8 kPa | 1043.8
2509.4 kPa | 1043.8
2530.2 kPa | 1043.8
2554.7 kPa | 1043.7
2576.2 kPa | 1043.9
2597.2 kPa | 1043.9
2618.2 kPa | 1043.9
2643 kPa | 1043.9
2663.8 kPa | 1044
2685.1 kPa | 1043.9
2711.1 kPa | 1044
2732.8 kPa | 1044
2754.8 kPa | 1044
2781 kPa | 1043.9
2802.9 kPa | 1044
2824.7 kPa | 1044
2874.3 kPa | 1044.1
2897.5 kPa | 1044
2943.5 kPa | 1044.1
2971 kPa | 1044.1
2993.1 kPa | 1044.1
3014.9 kPa | 1044.1
3041.8 kPa | 1044.2
3063.6 kPa | 1044.2
3085.8 kPa | 1044.2
3108.7 kPa | 1044.3
3136.3 kPa | 1044.2
3159.3 kPa | 1044.2
3182.9 kPa | 1044.2
3207 kPa | 1044.3
3235.1 kPa | 1044.3
3258.3 kPa | 1044.2
3282.9 kPa | 1044.4
3311.7 kPa | 1044.3
3336.1 kPa | 1044.3
3361.2 kPa | 1044.5
3386.4 kPa | 1044.3
3416 kPa | 1044.5
3440.9 kPa | 1044.4
3466.4 kPa | 1044.4
3492.4 kPa | 1044.4
3523.8 kPa | 1044.5
3549.8 kPa | 1044.5
3576.6 kPa | 1044.5
3603.3 kPa | 1044.5
3635.4 kPa | 1044.6
3661.7 kPa | 1044.6
3688.4 kPa | 1044.7
3710.9 kPa | 1044.6
3733.8 kPa | 1044.6
3756.6 kPa | 1044.6
3784.2 kPa | 1044.7
3807.4 kPa | 1044.6
3831.5 kPa | 1044.7
3857.6 kPa | 1044.7
3881.3 kPa | 1044.7
3909.9 kPa | 1044.8
3931.4 kPa | 1044.7
3952.7 kPa | 1044.7
3974.1 kPa | 1044.8
